# In US12285407B2, “Bis-indolylmethane derivatives and uses thereof” (The University of The West Indies, priority 2018, dated 2025):
# Where two headings read alike, the source gives them in different places.
# How the values were obtained:
# [1] = tested on: Streptococcus pneumoniae; assay: Adjuvant broth microdilution (antibiotic MIC with SP-BIM at 50 μg/mL); format: cell-based; settings: Streptococcus pneumoniae; Streptococcus pneumonia; antibiotic alone; Table 5; read-out: MIC of antibiotic, No compound
# [2] = tested on: Escherichia coli; assay: microbe, parasite or virus in culture; format: cell-based; settings: antibiotic alone, Table 6, read-out: MIC of antibiotic, No compound
# [3] = tested on: Enterococcus faecalis; assay: Adjuvant broth microdilution (antibiotic MIC with SP-BIM at 50 μg/mL); format: cell-based; settings: antibiotic alone
# [4] = tested on: Enterobacter cloacae; assay: as above; format: cell-based; settings: antibiotic alone
# [5] = tested on: Staphylococcus aureus; assay: Checkerboard synergy (FICI) of antibiotics with SP-BIM; format: cell-based; settings: Staphylococcus aureus, Staphylococcus aureus; for MIC: 24 h, antibiotic alone, read-out: MIC antibiotic only
# [6] = tested on: Streptococcus pneumoniae; assay: as above; format: cell-based; settings: for MIC: 24 h, antibiotic alone, read-out: MIC antibiotic only
# [7] = tested on: Bacillus cereus; assay: as above; format: cell-based; settings: for MIC: 24 h, antibiotic alone, read-out: MIC antibiotic only
# [8] = tested on: Enterococcus faecium; assay: as above; format: cell-based; settings: Enterococcus faecium, Enterococcus faecium; for MIC: 24 h, antibiotic alone, read-out: MIC antibiotic only
# [9] = tested on: Klebsiella pneumoniae; assay: as above; format: cell-based; settings: for MIC: 24 h, antibiotic alone, read-out: MIC antibiotic only
# [10] = tested on: clinical antibiotic resistant isolates of MRSA; assay: Checkerboard resistance breaking by SP-BIM 13; format: cell-based, Staphylococcus aureus; settings: for FIC compound: SP-BIM 13 with the labelled antibiotic; for Interpretation / Σ FIC: antibiotic + SP-BIM 13; for MIC of antibiotic only: antibiotic alone; for FIC antibiotic: combination with SP-BIM 13; for MIC of antibiotic in combination: with SP-BIM 13 at rescue concentration
# [11] = tested on: clinical antibiotic resistant isolates of Enterococcus faecium; assay: Checkerboard resistance breaking by SP-BIM 13; format: cell-based; settings: for FIC compound: SP-BIM 13 with the labelled antibiotic; for Interpretation / Σ FIC: antibiotic + SP-BIM 13; for MIC of antibiotic only: antibiotic alone; for FIC antibiotic: combination with SP-BIM 13; for MIC of antibiotic in combination: with SP-BIM 13 at rescue concentration
# [12] = tested on: Escherichia coli; assay: Checkerboard synergy (FICI) of antibiotics with SP-BIM; parameters: MIC SP-BIM 13 only / MIC in combination: Antibiotic: unit not given beside the values; settings: for MIC: 24 h
# [13] = tested on: Candida albicans; assay: as above; parameters: MIC SP-BIM 13 only / MIC in combination: Antibiotic / MIC antibiotic only: unit not given beside the values
# [14] = SP-BIM 9 in combination with the labelled antibiotic
# [15] = SP-BIM 13 in combination with the labelled antibiotic
# [16] = antibiotic in combination with SP-BIM 9
# [17] = antibiotic in combination with SP-BIM 13
# [18] = Streptococcus pneumonia (title: Streptococcus pyogenes), antibiotic + SP-BIM 9
# [19] = Streptococcus pneumoniae, antibiotic + SP-BIM 13
# [20] = MIC of the antibiotic in combination with SP-BIM 13
compound,measurement,setting,value
"CC1(C)S[C@@H]2[C@H](NC(=O)[C@H](N)c3ccccc3)C(=O)N2[C@H]1C(=O)O [Ampicillin, ampicillin]",MIC,[1],0.5 µg/mL
same,MIC,[2],63 µg/mL
same,"MIC of antibiotic, No Compound",[3],2 µg/mL
same,"MIC of antibiotic, No Compound",[4],>250 µg/mL
same,MIC,[5]; SP-BIM 9 checkerboard,0.5 µg/mL
same,MIC,[5]; SP-BIM 13 checkerboard,0.5 µg/mL
same,FIC of SP-BIM 9,[5]; [14],0.50
same,FIC of SP-BIM 13,[5]; [15],0.0
same,Interpretation,[5]; antibiotic + SP-BIM 9,Additive (Additive: FICI>0.5-1.0)
same,Σ FIC,[5]; antibiotic + SP-BIM 9,<0.90
same,Interpretation,[5]; antibiotic + SP-BIM 13,Additive (Additive: FICI>0.5-1.0)
same,Σ FIC,[5]; antibiotic + SP-BIM 13,1.0
same,"MIC in combination, Antibiotic",[5]; [16],0.2 µg/mL
same,"MIC in combination, Antibiotic",[5]; [17],0.5 µg/mL
same,FIC of antibiotic,[5]; in combination with SP-BIM 9,0.40
same,FIC of antibiotic,[5]; in combination with SP-BIM 13,1.0
same,FIC of SP-BIM 9,"[6]; Streptococcus pneumonia (title: Streptococcus pyogenes), SP-BIM 9 in combination with the labelled antibiotic",0.06
same,Interpretation,[6]; [18],Synergy (Synergy: FICI≤0.5)
same,Σ FIC,[6]; [18],<0.06
same,"MIC in combination, Antibiotic","[6]; Streptococcus pneumonia (title: Streptococcus pyogenes), antibiotic in combination with SP-BIM 9",0.1 µg/mL
same,FIC of antibiotic,"[6]; Streptococcus pneumonia (title: Streptococcus pyogenes), in combination with SP-BIM 9",0.00
same,MIC,"[6]; Streptococcus pneumoniae, Streptococcus pneumonia (title: Streptococcus pyogenes), SP-BIM 9 checkerboard",> 250 µg/mL
same,MIC,"[6]; Streptococcus pneumoniae, Streptococcus pneumoniae, SP-BIM 13 checkerboard",250 µg/mL
same,FIC of SP-BIM 13,"[6]; Streptococcus pneumoniae, SP-BIM 13 in combination with the labelled antibiotic",0.3
same,Interpretation,[6]; [19],Synergy (Synergy: FICI≤0.5)
same,Σ FIC,[6]; [19],<0.3
same,"MIC in combination, Antibiotic","[6]; Streptococcus pneumoniae, antibiotic in combination with SP-BIM 13",2 µg/mL
same,FIC of antibiotic,"[6]; Streptococcus pneumoniae, in combination with SP-BIM 13",0.0
same,MIC,[7]; SP-BIM 9 checkerboard,8 µg/mL
same,MIC,[7]; SP-BIM 13 checkerboard,8 µg/mL
same,FIC of SP-BIM 13,[7]; [15],0.3
same,Interpretation,[7]; antibiotic + SP-BIM 13,Synergy (Synergy: FICI≤0.5)
same,Σ FIC,[7]; antibiotic + SP-BIM 13,0.3
same,"MIC in combination, Antibiotic",[7]; [17],0.5 µg/mL
same,FIC of antibiotic,[7]; in combination with SP-BIM 13,0.06
same,MIC,[8]; SP-BIM 9 checkerboard,250 µg/mL
same,MIC,[8]; SP-BIM 13 checkerboard,250 µg/mL
same,"MIC in combination, SP-BIM 9",[8]; SP-BIM 9 concentration in combination with the labelled antibiotic,64 µg/mL
same,FIC of SP-BIM 9,[8]; [14],0.3
same,FIC of SP-BIM 13,[8]; [15],0.5
same,Interpretation,[8]; antibiotic + SP-BIM 9,Synergy (Synergy: FICI≤0.5)
same,Σ FIC,[8]; antibiotic + SP-BIM 9,≤0.3
same,Interpretation,[8]; antibiotic + SP-BIM 13,Additive (Additive: FICI>0.5-1.0)
same,Σ FIC,[8]; antibiotic + SP-BIM 13,<0.6
same,"MIC in combination, Antibiotic",[8]; [16],0.1 µg/mL
same,"MIC in combination, Antibiotic",[8]; [17],16 µg/mL
same,FIC of antibiotic,[8]; in combination with SP-BIM 9,0.0
same,FIC of antibiotic,[8]; in combination with SP-BIM 13,0.1
same,MIC,[9]; SP-BIM 9 checkerboard,250 µg/mL
same,MIC,[9]; SP-BIM 13 checkerboard,250 µg/mL
same,FIC of SP-BIM 9,[9]; [14],1
same,FIC of SP-BIM 13,[9]; [15],0.3
same,Interpretation,[9]; antibiotic + SP-BIM 9,Synergy (Synergy: FICI≤0.5)
same,Σ FIC,[9]; antibiotic + SP-BIM 9,<1.0
same,Interpretation,[9]; antibiotic + SP-BIM 13,Indifferent (Indifferent: FICI>1.0-4.0)
same,Σ FIC,[9]; antibiotic + SP-BIM 13,<1.3
same,"MIC in combination, Antibiotic",[9]; [16],2 µg/mL
same,"MIC in combination, Antibiotic",[9]; [17],250 µg/mL
same,FIC of antibiotic,[9]; in combination with SP-BIM 9,0.008
same,FIC of antibiotic,[9]; in combination with SP-BIM 13,1.0
same,FIC compound,[10]; MRSA strain 1594,0.128
same,Interpretation,[10]; MRSA strain 1594,Synergy (Synergy: FICI≤0.5)
same,Σ FIC,[10]; MRSA strain 1594,<0.14
same,MIC of antibiotic only,[10]; MRSA strain 1594,250 µg/mL
same,FIC antibiotic,[10]; MRSA strain 1594,0.016
same,MIC of antibiotic in combination,[10]; MRSA strain 1594,4 µg/mL
same,FIC compound,[10]; MRSA strain 1621,0.128
same,Interpretation,[10]; MRSA strain 1621,Synergy (Synergy: FICI≤0.5)
same,Σ FIC,[10]; MRSA strain 1621,<0.13
same,MIC of antibiotic only,[10]; MRSA strain 1621,250 µg/mL
same,FIC antibiotic,[10]; MRSA strain 1621,0.002
same,MIC of antibiotic in combination,[10]; MRSA strain 1621,0.5 µg/mL
same,FIC compound,[10]; MRSA strain 5455,0.252
same,Interpretation,[10]; MRSA strain 5455,Synergy (Synergy: FICI≤0.5)
same,Σ FIC,[10]; MRSA strain 5455,<0.26
same,MIC of antibiotic only,[10]; MRSA strain 5455,250 µg/mL
same,FIC antibiotic,[10]; MRSA strain 5455,0.004
same,MIC of antibiotic in combination,[10]; MRSA strain 5455,1 µg/mL
same,FIC compound,[10]; MRSA strain 5872,0.128
same,Interpretation,[10]; MRSA strain 5872,Synergy (Synergy: FICI≤0.5)
same,Σ FIC,[10]; MRSA strain 5872,<0.13
same,MIC of antibiotic only,[10]; MRSA strain 5872,250 µg/mL
same,FIC antibiotic,[10]; MRSA strain 5872,0.002
same,MIC of antibiotic in combination,[10]; MRSA strain 5872,0.5 µg/mL
same,FIC compound,[10]; MRSA strain 7153,0.252
same,Interpretation,[10]; MRSA strain 7153,Synergy (Synergy: FICI≤0.5)
same,Σ FIC,[10]; MRSA strain 7153,<0.25
same,MIC of antibiotic only,[10]; MRSA strain 7153,250 µg/mL
same,FIC antibiotic,[10]; MRSA strain 7153,0.002
same,MIC of antibiotic in combination,[10]; MRSA strain 7153,0.5 µg/mL
same,FIC compound,[10]; MRSA strain 7172,0.128
same,Interpretation,[10]; MRSA strain 7172,Synergy (Synergy: FICI≤0.5)
same,Σ FIC,[10]; MRSA strain 7172,<0.14
same,MIC of antibiotic only,[10]; MRSA strain 7172,250 µg/mL
same,FIC antibiotic,[10]; MRSA strain 7172,0.008
same,MIC of antibiotic in combination,[10]; MRSA strain 7172,2 µg/mL
same,FIC compound,[10]; MRSA strain 7698,0.128
same,Interpretation,[10]; MRSA strain 7698,Synergy (Synergy: FICI≤0.5)
same,Σ FIC,[10]; MRSA strain 7698,<0.14
same,MIC of antibiotic only,[10]; MRSA strain 7698,250 µg/mL
same,FIC antibiotic,[10]; MRSA strain 7698,0.008
same,MIC of antibiotic in combination,[10]; MRSA strain 7698,2 µg/mL
same,FIC compound,[10]; MRSA strain 10132,0.064
same,Interpretation,[10]; MRSA strain 10132,Synergy (Synergy: FICI≤0.5)
same,Σ FIC,[10]; MRSA strain 10132,<0.07
same,MIC of antibiotic only,[10]; MRSA strain 10132,250 µg/mL
same,FIC antibiotic,[10]; MRSA strain 10132,0.002
same,MIC of antibiotic in combination,[10]; MRSA strain 10132,0.5 µg/mL
same,MIC of antibiotic without SP-BIM 13,[10]; clinical MRSA strains,≥ 250 µg/mL
same,FIC compound,[11]; E. faecium strain 22870,0.128
same,Interpretation,[11]; E. faecium strain 22870,Synergy (Synergy: FICI≤0.5)
same,Σ FIC,[11]; E. faecium strain 22870,<0.14
same,MIC of antibiotic only,[11]; E. faecium strain 22870,250 µg/mL
same,FIC antibiotic,[11]; E. faecium strain 22870,0.008
same,MIC of antibiotic in combination,[11]; E. faecium strain 22870,2 µg/mL
same,FIC compound,[11]; E. faecium strain RC63,0252
same,Interpretation,[11]; E. faecium strain RC63,Synergy (Synergy: FICI≤0.5)
same,Σ FIC,[11]; E. faecium strain RC63,<0.26
same,MIC of antibiotic only,[11]; E. faecium strain RC63,250 µg/mL
same,FIC antibiotic,[11]; E. faecium strain RC63,0.008
same,MIC of antibiotic in combination,[11]; E. faecium strain RC63,2 µg/mL
same,MIC,"[12]; read-out: MIC antibiotic only, Escherichia coli, antibiotic alone",> 250 µg/mL
same,MIC,"[12]; read-out: MIC antibiotic only, Escherichia coli, antibiotic alone, SP-BIM 9 checkerboard",250 µg/mL
same,MIC in combination: Antibiotic,[12]; [20],4
same,FIC of SP-BIM 9,[12]; [14],0.064
same,FIC of SP-BIM 13,[12]; [15],0.5
same,Interpretation,[12]; antibiotic + SP-BIM 9,Synergy (Synergy: FICI≤0.5)
same,Σ FIC,[12]; antibiotic + SP-BIM 9,<0.1
same,Interpretation,[12]; antibiotic + SP-BIM 13,Synergy (Synergy: FICI≤0.5)
same,Σ FIC,[12]; antibiotic + SP-BIM 13,<0.5
same,"MIC in combination, Antibiotic",[12]; [16],4 µg/mL
same,FIC of antibiotic,[12]; combination with SP-BIM 13,0.0
same,FIC of antibiotic,[12]; in combination with SP-BIM 9,0.016
same,MIC,"[13]; 24 h, read-out: MIC antibiotic only",> 250 µg/mL
same,MIC in combination: Antibiotic,[13]; [20],0.5
same,FIC of SP-BIM 13,[13]; [15],0.5
same,Interpretation,[13]; antibiotic + SP-BIM 13,Synergy (Synergy: FICI≤0.5)
same,Σ FIC,[13]; antibiotic + SP-BIM 13,<0.5
same,FIC of antibiotic,[13]; combination with SP-BIM 13,0.0
